According to publication PMC9127750, “Structure-based design of CDC42 effector interaction inhibitors for the treatment of cancer” (Cell reports, 2022):
Values joined by “and” are separate entries in the source; they are usually repeats but may differ in a detail not shown here. Identical values can stand only once.

Tested on: WM3248 melanoma cells, 486 antibodies
Assay: Reverse phase protein arrays (RPPA)
Assay type: cell-based, Human
From the text: Pellets were snap frozen in liquid nitrogen and shipped to MD Anderson Cancer Center core RPPA facility for RPPA analysis (Table S5). Three biological replicates for each sample were generated.
Nomenclatures on the RPPA heatmaps: name_of_antibody.species_of_antibody.status_of_antibody. V - antibody validated; C - validation of antibody in progress; Q - antibody nonspecific; E – under evaluation; antibodies raised in M - mouse, G - goat, R - rabbit, or T - rat.

SMILES: CN(C)c1cccc(Nc2cc(-c3ccccc3)nc(C3CCNCC3)n2)c1 [ARN22089, N1,N1-dimethyl-N3-(6-phenyl-2-(piperidin-4-yl)pyrimidin-4-yl)benzene-1,3-diamine]
- RPPA DNMT1.R.V (20 uM, single samples): 0.983 and 0.756 and 0.985
- RPPA DRP1.R.V (20 uM, single samples): 0.965
- RPPA DUSP6.R.C (20 uM, single samples): 1.060 and 1.859 and 1.429
- RPPA DYRK1B.R.C (20 uM, single samples): 1.009 and 1.052 and 0.953
- RPPA Dvl3.R.V (20 uM, single samples): 0.950 and 1.123
- RPPA E2F1.R.V (20 uM, single samples): 1.419 and 1.315 and 0.981
- RPPA E.Cadherin.R.V (20 uM, single samples): 0.828 and 1.005
- RPPA EGFR.R.V (20 uM, single samples): 1.031 and 1.102 and 1.106
- RPPA EGFR_pY1068.R.C (20 uM, single samples): 0.990 and 0.986
- RPPA EGFR_pY1173.R.V (20 uM, single samples): 1.027 and 1.077 and 1.112
- RPPA EMA.M.C (20 uM, single samples): 0.905 and 0.939 and 0.944
- RPPA ENY2.M.C (20 uM, single samples): 0.965 and 0.851 and 0.977
- RPPA ER.a.R.V (20 uM, single samples): 0.767 and 0.993 and 1.203
- RPPA ERCC1.R.C (20 uM, single samples): 1.137 and 1.100 and 0.957
- RPPA ERCC5.R.C (20 uM, single samples): 1.157 and 0.901 and 0.984
- RPPA ERRalpha.R.V (20 uM, single samples): 0.962 and 1.097 and 0.968
- RPPA EVI1.R.V (20 uM, single samples): 1.169 and 1.023 and 0.918
- RPPA Elk1_pS383.R.C (20 uM, single samples): 1.006 and 1.163 and 1.131
- RPPA Enolase.1.R.V (20 uM, single samples): 1.058 and 0.770 and 0.988
- RPPA Enolase.2.R.V (20 uM, single samples): 1.052 and 0.967 and 0.953
- RPPA EphA2.R.V (20 uM, single samples): 0.650 and 0.867 and 0.932
- RPPA EphA2_pY588.R.C (20 uM, single samples): 1.102 and 1.013 and 0.933
- RPPA Erk5.R.V (20 uM, single samples): 0.870 and 0.876
- RPPA Ets.1.R.V (20 uM, single samples): 1.428 and 0.989
- RPPA FABP5.R.C (20 uM, single samples): 1.054 and 0.987 and 1.035
- RPPA FAK.R.C (20 uM, single samples): 0.799 and 1.003 and 1.205
- RPPA FAK_pY397.R.V (20 uM, single samples): 0.986 and 1.046 and 0.989
- RPPA FANCD2.R.V (20 uM, single samples): 0.998 and 0.872 and 0.901
- RPPA FASN.R.V (20 uM, single samples): 1.033 and 0.807 and 0.695
- RPPA FGF.basic.R.C (20 uM, single samples): 0.959 and 0.928
- RPPA FN14.R.C (20 uM, single samples): 0.830 and 1.031 and 1.337
- RPPA FOXM1.R.V (20 uM, single samples): 1.401 and 0.852 and 0.917
- RPPA FOXO3.R.V (20 uM, single samples): 1.030 and 0.990
- RPPA FRS2.alpha_pY196.R.V (20 uM, single samples): 0.974 and 1.050 and 1.002
- RPPA FTO.R.V (20 uM, single samples): 1.174 and 0.828 and 0.929
- RPPA Fibronectin.R.V (20 uM, single samples): 0.643 and 1.194 and 1.130
- RPPA FoxO3a_pS318_S321.R.C (20 uM, single samples): 1.008 and 0.941
- RPPA G6PD.R.V (20 uM, single samples): 0.989 and 0.985 and 0.975
- RPPA GATA3.M.V (20 uM, single samples): 1.212 and 0.968
- RPPA GATA6.R.V (20 uM, single samples): 1.033 and 0.956 and 0.952
- RPPA GCLC.R.C (20 uM, single samples): 0.868 and 1.160
- RPPA GCLM.R.V (20 uM, single samples): 1.077 and 0.945 and 0.973
- RPPA GCN5L2.R.V (20 uM, single samples): 0.869 and 0.957
- RPPA GGPS1.M.V (20 uM, single samples): 1.005 and 0.891 and 0.957
- RPPA GRB2.R.V (20 uM, single samples): 0.953 and 0.884 and 1.030
- RPPA GRB7.R.V (20 uM, single samples): 0.848 and 1.110 and 1.171
- RPPA GSK.3B.R.C (20 uM, single samples): 0.916 and 0.817 and 0.970
- RPPA GSK.3a.b.M.V (20 uM, single samples): 1.009 and 0.884 and 0.977
- RPPA GSK.3a.b_pS21_S9.R.V (20 uM, single samples): 0.956 and 1.173 and 1.028
- RPPA Gab2.R.V (20 uM, single samples): 1.465 and 0.881 and 0.921
- RPPA Gli1.R.C (20 uM, single samples): 0.959 and 0.928 and 0.972
- RPPA Gli3.R.C (20 uM, single samples): 1.201
- RPPA Glucocorticoid.Receptor.R.V (20 uM, single samples): 1.195 and 1.220 and 0.975
- RPPA Glutamate.D1.2.R.V (20 uM, single samples): 1.284 and 0.987 and 1.014
- RPPA Glutaminase.R.C (20 uM, single samples): 1.004 and 0.974 and 1.096
- RPPA Granzyme.B.R.V (20 uM, single samples): 1.019 and 1.152 and 1.098
- RPPA Grp75.R.C (20 uM, single samples): 1.682 and 0.883 and 0.952
- RPPA Gys.R.V (20 uM, single samples): 0.810 and 1.025 and 1.174
- RPPA Gys_pS641.R.V (20 uM, single samples): 0.658 and 0.955
- RPPA H2AX_pS140.M.C (20 uM, single samples): 1.144 and 1.344 and 0.957
- RPPA HER2.M.V (20 uM, single samples): 1.022 and 0.960
- RPPA HER2_pY1248.R.V (20 uM, single samples): 1.010 and 1.097
- RPPA HER3.R.V (20 uM, single samples): 1.052 and 0.876 and 0.821
- RPPA HER3_pY1289.R.C (20 uM, single samples): 1.023 and 0.933
- RPPA HES1.R.V (20 uM, single samples): 0.979 and 1.109 and 1.059
- RPPA Heregulin.R.V (20 uM, single samples): 0.854 and 1.034 and 1.150
- RPPA eEF2.R.C (20 uM, single samples): 1.353 and 0.930 and 0.976
- RPPA eEF2K.R.V (20 uM, single samples): 1.420 and 1.250 and 1.117
- RPPA eIF4E.R.V (20 uM, single samples): 0.957 and 1.295 and 1.239
- RPPA eIF4E_pS209.R.V (20 uM, single samples): 0.903 and 1.310
- RPPA eIF4G.R.C (20 uM, single samples): 1.450 and 0.906 and 0.991
- DNMT1.R.V Norm_5 Average (5, average, normalized to 0): 1.028
- DRP1.R.V Norm_5 Average (5, average, normalized to 0): 1.024
- DUSP4.R.V Norm_5 Average (5, average, normalized to 0): 1.106
- DUSP6.R.C Norm_5 Average (5, average, normalized to 0): 1.186
- DYRK1B.R.C Norm_5 Average (5, average, normalized to 0): 0.920
- Dvl3.R.V Norm_5 Average (5, average, normalized to 0): 0.989
- E2F1.R.V Norm_5 Average (5, average, normalized to 0): 0.971
- E.Cadherin.R.V Norm_5 Average (5, average, normalized to 0): 0.851
- EGFR.R.V Norm_5 Average (5, average, normalized to 0): 1.030
- EGFR_pY1068.R.C Norm_5 Average (5, average, normalized to 0): 0.934
- EGFR_pY1173.R.V Norm_5 Average (5, average, normalized to 0): 1.022
